# Paper PMC10819521 (Pharmaceutics, 2024)
# “And” between values parts separate entries of the source, which are not always exact repeats. Identical values can stand only once.
# Tests used:
# [1] = test system: voltage-gated calcium channels; assay: Calcium channel blockade (FLIPR Calcium 6 indicator, SH-SY5Y cells); type: cell-based, human; conditions: compounds at 10 µM, KCl/CaCl2 stimulation, n.i. = no inhibition
# Protocol: Calcium channel blockade. Evaluation of the calcium channel blockade of compounds 4a–l was performed using the FLIPR Calcium 6 indicator according to a previously established protocol. Briefly, human neuroblastoma cell line SH-SY5Y seeded out on 96-well plate were treated with fluorescent calcium indicator (FLIPR Calcium 6, Molecular Devices). Cells were incubated with indicator for 2 h at 37 °C, facilitating internalization of the indicator. Subsequently, cells were exposed to nimodipine (10 µM, used as reference inhibitor), DMSO (0.1%, used as vehicle control) or our compounds of interest (10 µM) for 10 min also at 37 °C. Following that, cell fluorescence was recorded using a microplate reader (λEx = 485 nm; λEm = 525 nm). Baseline fluorescence was recorded for 5 s. Afterwards, cells were stimulated by the addition of the solution of KCl and CaCl2 (90 and 5 mM, respectively) in order to induce the opening of voltage-gated calcium channels. An increase in fluorescence of calcium indicator after inducing calcium flux was recorded for another 30 s. Data were collected from three independent experiments, with eight technical replicates per experiment. Fluorescence intensity values were normalized to the baseline recorded before the induction of calcium flux. The percentage of inhibition was calculated as a reduction of normalized calcium flux in comparison with the DMSO vehicle control. Outliers were detected using the Grubbs test, and any outlying values were excluded from further analysis.
# Calcium channel blockade. The Ca^2+ channel blocking capacity of compounds 4a–l and nimodipine, used as a standard at a concentration of 10 μM, was evaluated according to an established methodology.
# [2] = Oxygen radical absorbance capacity assay (ORAC-FL); conditions: ORAC-FL method; mean ± SEM
# Protocol: Oxygen radical absorbance capacity assay. The evaluation of the antioxidant activity of compounds 4a–l was carried out using the previously established ORAC-FL method, and detailed information is provided in the supporting information.
# Antioxidant assay. The antioxidant assessment was conducted by evaluating the compounds 4a–l through the determination of oxygen radical absorbance capacity (ORAC) using the ORAC-Fluorescein (ORAC-FL) method […]
# Oxygen radical absorbance capacity assay.
# ORAC-FL method, using fluorescein as a fluorescent probe. Shortly, fluorescein and the antioxidants
# 2,2'-Azobis(amidinopropane)
# (emission wavelength) every minute for 1 hour. […]
# Nrf2-ARE = assay: Nrf2 transcriptional activation, cell-based luciferase assay; conditions: 24 h
# Protocol: Nrf2 transcriptional activation potencies. The assessment of the Nrf2 transcriptional activation potencies of compounds 4a–l was carried out using the previously described method, and detailed information is provided in the supporting information.
# Nrf2 transcriptional activation potencies of compounds 4a–l. […] AREc32 cells were exposed to escalating concentrations of each compound (1, 5, 10, 25, 50, 100, 125, and 150 μM) for 24 h to reach the cytotoxic threshold, followed by measurements of luciferase activity. Melatonin was used as a positive control.
# 4e H Cl H n.i. 76 n.i. […]
# Nrf2 transcriptional activation potencies. The stable NRF2/ARE luciferase reporter HEK293 cell line
# (Promega) according to the manufacturer's instructions. To assess cellular viability, the stable
# [3] = molecular target: T1, Human recombinant cathepsin S (Homo sapiens, UniProt P25774); assay: Cathepsin S assay (fluorogenic substrate Z-Phe-Arg-AMC); type: biochemical; conditions: 50 µM inhibitor, 60 min; 100% = no inhibitor; n.i. = residual activity ≥ 95%; read-out: Percentage residual activity of human cathepsin S
# T1 construct: purchased Enzo Life Sciences
# T1 sequence (P25774 115-331): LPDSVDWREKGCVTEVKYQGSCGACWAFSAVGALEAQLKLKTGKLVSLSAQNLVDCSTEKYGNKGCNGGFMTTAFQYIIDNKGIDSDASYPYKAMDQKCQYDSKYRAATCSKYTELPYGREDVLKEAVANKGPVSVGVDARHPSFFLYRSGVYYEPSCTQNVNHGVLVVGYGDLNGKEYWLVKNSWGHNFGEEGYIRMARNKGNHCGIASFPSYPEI
# Protocol: (§1) Cathepsin assays. Assays with human cathepsins B, S, L, and K were carried out as described previously. Stock solutions of substrates and inhibitors were prepared in DMSO. The final DMSO concentration was 2%. All test compounds were investigated in duplicate at a concentration of 50 µM to determine residual activities based on endpoints of substrate consumption after 60 min. Ki values were obtained in duplicate measurements with six different inhibitor concentrations, and 60-min-progress curves were analyzed by linear regression. IC50 values were obtained by non-linear regression using the equation vi = v0/(1 + ([I]/IC50), where vi is the product formation rate at different inhibitor concentrations, v0 is the uninhibited product formation rate, [I] is the inhibitor concentration, and IC50 is the half-maximal inhibitory concentration. IC50 values are transformed to Ki values using the Cheng-Prusoff equation.
# Human recombinant cathepsin S (Enzo Life Sciences) was assayed fluorometrically (FLUOstar Optima plate reader, BMG Labtech) at 25 °C with an emission wavelength of 360 nm and an absorption wavelength of 460 nm. The assay buffer was 100 mM sodium phosphate buffer pH 6.0, 100 mM NaCl, 5 mM EDTA, 0.01% Brij 35. For activation, an enzyme stock solution was diluted with assay buffer containing 5 mM DTT and incubated for 60 min at 37 °C.
# (§2) Cathepsins inhibition. Compounds 4a–l were then evaluated for their ability to inhibit Cat S. Besides Cat S, the set of assays included three related human cathepsins, B, L, and K, all members of the class of lysosomal cysteine proteases (see Table S1 in the Supporting Information). Following reported procedures, [39, 40, 41] percentage or residual activities were determined using chromogenic or fluorogenic peptide substrates, with endpoints measured after 60 min of substrate consumption. To determine Ki values, progress curves were followed over 60 min and analyzed by linear regression. Ki values were then obtained by non-linear regression.
# [4] = molecular target: T2, Human isolated cathepsin B (Homo sapiens, UniProt P07858); assay: Cathepsin B assay (chromogenic substrate Z-Arg-Arg-pNA); type: biochemical; conditions: 50 µM inhibitor, 60 min, 100% = no inhibitor, n.i. = residual activity ≥ 95%
# T2 construct: Human isolated cathepsin B (Calbiochem) was assayed spectrophotometrically; purchased Calbiochem
# Protocol: as §1
# (§3) Human isolated cathepsin B (Calbiochem) was assayed spectrophotometrically (Cary 50 Bio, Varian) at 405 nm and 37 °C. Assay buffer was 100 mM sodium phosphate buffer pH 6.0, 100 mM NaCl, 5 mM EDTA, 0.01% Brij 35. For activation, an enzyme stock solution was diluted with assay buffer containing 5 mM DTT and incubated for 30 min at 37 °C. The final concentration of the chromogenic substrate Z-Arg-Arg-pNA was 500 µM (0.45 × Km).
# as §2
# [5] = molecular target: T3, Human isolated cathepsin L (Homo sapiens, UniProt P07711); assay: Cathepsin L assay (chromogenic substrate Z-Phe-Arg-pNA); type: biochemical; conditions: 50 µM inhibitor, 60 min, 100% = no inhibitor, n.i. = residual activity ≥ 95%
# T3 construct: Human isolated cathepsin L (Enzo Life Sciences) was assayed spectrophotometrically; purchased Enzo Life Sciences
# T3 sequence (P07711 114-333): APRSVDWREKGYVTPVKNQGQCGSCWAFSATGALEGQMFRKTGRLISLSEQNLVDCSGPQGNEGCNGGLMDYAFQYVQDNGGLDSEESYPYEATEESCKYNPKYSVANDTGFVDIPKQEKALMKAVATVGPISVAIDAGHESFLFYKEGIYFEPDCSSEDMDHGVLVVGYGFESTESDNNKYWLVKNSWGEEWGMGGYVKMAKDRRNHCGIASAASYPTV
# Protocol: as §1
# as §3, with “L (Enzo Life Sciences)” for “B (Calbiochem)”, “The assay” for “Assay”, “EDTA, and” for “EDTA,”, “Z-Phe-Arg-pNA” for “Z-Arg-Arg-pNA”, “100” for “500”, “(5.88” for “(0.45”
# as §2
# [6] = molecular target: T4, Human recombinant cathepsin K (Homo sapiens, UniProt P43235); assay: Cathepsin K assay (substrate Z-Leu-Arg-AMC); type: biochemical; conditions: 50 µM inhibitor, 60 min, 100% = no inhibitor, n.i. = residual activity ≥ 95%
# T4 construct: purchased Enzo Life Sciences
# T4 sequence (P43235 115-329): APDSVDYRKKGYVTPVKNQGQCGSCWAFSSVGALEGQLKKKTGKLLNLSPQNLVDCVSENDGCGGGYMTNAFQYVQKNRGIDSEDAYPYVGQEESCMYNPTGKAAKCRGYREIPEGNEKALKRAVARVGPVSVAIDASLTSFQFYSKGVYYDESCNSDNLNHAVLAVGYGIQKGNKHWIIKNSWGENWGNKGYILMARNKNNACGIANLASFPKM
# Protocol: as §1
# Human recombinant cathepsin K (Enzo Life Sciences) was assayed fluorometrically (FLUOstar Optima plate reader, BMG Labtech) with an emission wavelength of 360 nm and an absorption wavelength of 460 nm. The assay buffer was 100 mM sodium citrate pH 5.0, 100 mM NaCl, 1 mM EDTA, 0.01% CHAPS. For activation, an enzyme stock solution was diluted with assay buffer containing 5 mM DTT and incubated for 30 min at 37 °C. The final concentration of the chromogenic substrate Z-Leu-Arg-AMC was 40 µM (13.33 × Km).
# as §2
SMILES,Calcium Channel Blockade (%) [1] [%],ORAC [2],"Induction of the Nrf2 pathway (luciferase activity) (Nrf2-ARE; concentrations up to 150 μM, versus non-treated cells)",remaining activity at 50 µM [3] [%],Percentage residual activity of human cathepsin B [4],Percentage residual activity of human cathepsin L [5],Percentage residual activity of human cathepsin K [6],"EC50 (Nrf2-ARE; CD = concentration required to double the specific activity of the luciferase reporter, read-out: Nrf2 Induction Potencies CD) [µM]",remaining activity at 50 µM ([4]; read-out: Percentage residual activity of human cathepsin B) [%],remaining activity at 50 µM ([5]; read-out: Percentage residual activity of human cathepsin L) [%],remaining activity at 50 µM ([6]; read-out: Percentage residual activity of human cathepsin K) [%]
"C#CCNC(=O)C1=C(C)NC(C)=C(C(=O)NCC#C)C1c1ccccc1 [4a, 2,6-Dimethyl-4-phenyl-N3,N5-bis(prop-2-yn-1-yl)-1,4-dihydropyridine-3,5-dicarboxamide]",12,0.86 Trolox equivalents and 0.86 ± 0.05 Trolox equivalents,no significant activity,68,n.i.,n.i.,n.i.,,,,
"C#CCN(C)C(=O)C1=C(C)NC(C)=C(C(=O)N(C)CC#C)C1c1cccc(Cl)c1Cl [4j, 4-(2,3-Dichlorophenyl)-N2,N3,5,6-tetramethyl-N3,N5-bis(prop-2-yn-1-yl)-1,4-dihydropyridine-3,5-dicarboxamide]",12,1.82 Trolox equivalents and 1.82 ± 0.05 Trolox equivalents,,69,,,,77.2 ± 7.1,90,87,81
